Where two headings read alike, the source gives them in different places.
How the values were obtained:
NCI 60 cell line panel = experiment: NCI60 cell line screen (SRB assay), whole panel or sub-panels; assay type: cell-based
Description: The results are summarized in Tables S3–S5, Supplementary Information.
Table S5: NCI 60 cell line mean screening results for selected compounds NCI Ref. Compound GI50 TGI LC50 […]
a GI50 and LC50 are the mean concentrations required to inhibit the growth and kill 50 % of the cells over the total NCI 60 cell line panel in the assay respectively. […]
over the total NCI 60 cell line panel.

[1] = system: human MCF-7 breast cancer cells; experiment: Cell viability (Alamar Blue) antiproliferative assay in MCF-7 cells; assay type: cell-based
Method: The human breast carcinoma cell line MCF-7, was purchased from the European Collection of Animal Cell Cultures (ECACC) and was cultured in Eagle’s minimum essential medium with 10% fetal bovine serum, 2 mM L-glutamine and 100 μg/mL penicillin/streptomycin. The medium was supplemented with 1% non-essential amino acids. The human breast carcinoma cell line MDA-MB-231 was purchased from the European Collection of Animal Cell Cultures (ECACC). MDA-MB-231 cells were maintained in Dulbecco’s modified Eagle’s medium (DMEM) supplemeted with 10% (v/v) fetal bovine serum, 2 mM L-glutamine and 100 μg/mL penicillin/streptomycin (complete medium). All media contained 100 U/mL penicillin and 100 μg/mL streptomycin. Triple negative breast cancer Hs578T cells and its invasive variant Hs578Ts(i)8 were obtained as a kind gift from Dr. Susan McDonnell, School of Chemical and Bioprocess Engineering, University College Dublin and were cultured in Dulbecco’s Modified Eagle’s Media (DMEM) with GlutaMAX^TM-I, with the same supplement as for MDA-MB-231 cells in the absence of non-essential amino acids. HEK-293T normal epithelial embryonic kidney cells were cultured in Dulbecco’s Modified Eagle’s Medium (DMEM) with GlutaMAX^TM-I in the absence of non-essential amino acids. K562 and HL-60 cells were originally obtained from the European Collection of Cell Cultures (Salisbury, UK).The K562 cells were derived from a patient in the blast crisis stage of CML HL-60 cells were derive from a patient with acute myeloid leukaemia. Cells were cultured in RPMI-1640 Glutamax medium supplemented with 10% FCS media, and 100 μg/mL penicillin/streptomycin. Cells were maintained at 37 °C in 5% CO2 in a humidified incubator. All cells were sub-cultured three times/week (adherent cells by trypsinisation).
Cells were seeded at a density of 5 × 10^3 cells/well (MCF-7), in triplicate in 96-well plates. After 24 h, cells were then treated with either medium alone, vehicle [1% ethanol (v/v)] or with serial dilutions of CA-4 or β-lactam analogue. Cell viability for MCF-7 and MDA-MB-231 was analysed using the Alamar Blue assay (Invitrogen Corp, Thermo Fisher Scientific, 168 Third Avenue, Waltham, MA, USA) according to the manufacturer’s instructions. After 72 h, Alamar Blue [10% (v/v)] was added to each well and plates were incubated for 3–5 h at 37 °C in the dark. Fluorescence was read using a 96-well fluorimeter with excitation at 530 nm and emission at 590 nm. Results were expressed as percentage viability relative to vehicle control (100%). Dose response curves were plotted and IC50 values (concentration of drug resulting in 50% reduction in cell survival) were obtained using the commercial software package Prism (GraphPad Software, Inc., 2365 Northside, Suite 560, San Diego, CA, USA). Experiments were performed in triplicate on at least three separate occasions.

OVCAR-4 = experiment: NCI60 screen (SRB), Ovarian cancer; assay type: cell-based; details: Homo sapiens
BT-549 = experiment: NCI60 screen (SRB), Breast cancer; assay type: cell-based; details: Homo sapiens
SN12C = experiment: NCI60 screen (SRB), Renal cancer; assay type: cell-based; details: Homo sapiens
SNB-19 = experiment: NCI60 screen (SRB), CNS Cancer; assay type: cell-based; details: Homo sapiens
HCT-116 = experiment: NCI60 screen (SRB), Colon Cancer; assay type: cell-based; details: Homo sapiens
PC-3 = experiment: NCI60 screen (SRB), Prostate cancer; assay type: cell-based; details: Homo sapiens
OVCAR-3 = experiment: NCI60 screen (SRB), Ovarian cancer; assay type: cell-based; details: Homo sapiens
SK-MEL-5 = experiment: NCI60 screen (SRB), Melanoma; assay type: cell-based; details: Homo sapiens
HCT-15 = experiment: NCI60 screen (SRB), Colon Cancer; assay type: cell-based; details: Homo sapiens
MDA-MB-231/ATCC = experiment: NCI60 screen (SRB), Breast cancer; assay type: cell-based, human; details: for IC50: value from NCI (footnote b)
IGROV1 = experiment: NCI60 screen (SRB), Ovarian cancer; assay type: cell-based; details: Homo sapiens, IGROV-1
MALME-3M = experiment: NCI60 screen (SRB), Melanoma; assay type: cell-based; details: Homo sapiens
TK-10 = experiment: NCI60 screen (SRB), Renal cancer; assay type: cell-based; details: Homo sapiens
K-562 = experiment: NCI60 screen (SRB), Leukemia; assay type: cell-based; details: Homo sapiens, K562
OVCAR-8 = experiment: NCI60 screen (SRB), Ovarian cancer; assay type: cell-based; details: Homo sapiens
[2] = mean over the total NCI 60 cell line panel
[3] = mean over the total NCI 60 cell line panel, read-out: GI50 (mean)
[4] = mean over the total NCI 60 cell line panel, read-out: LC50 (mean)
[5] = Homo sapiens, MCF7, Table S9, MCF-7 IC50 at which the toxicity was estimated, read-out: IC50, MCF-7
[6] = MCF7, human MCF-7 breast cancer cells, 72 h, mean ± SEM, read-out: Antiproliferative Activity IC50
[7] = NCI60 Ovarian cancer cell line OVCAR-4, read-out: GI50
[8] = NCI60 Breast cancer cell line BT-549, read-out: GI50
[9] = NCI60 Renal cancer cell line SN12C, read-out: GI50
[10] = NCI60 CNS Cancer cell line SNB-19, read-out: GI50
[11] = NCI60 Renal cancer cell line TK-10, read-out: GI50
[12] = NCI60 Colon Cancer cell line HCT-116, read-out: GI50
[13] = NCI60 Prostate cancer cell line PC-3, read-out: GI50
[14] = NCI60 Ovarian cancer cell line OVCAR-3, read-out: GI50
[15] = NCI60 Melanoma cell line SK-MEL-5, read-out: GI50
[16] = NCI60 Colon Cancer cell line HCT-15, read-out: GI50
[17] = Homo sapiens, MCF7, 72 h, human MCF-7 breast cancer cells, 72 h, mean ± SEM, read-out: Antiproliferative Activity IC50
[18] = Homo sapiens, NCI60 Breast cancer cell line MDA-MB-231/ATCC, read-out: GI50
[19] = NCI60 Ovarian cancer cell line IGROV1, read-out: GI50
[20] = NCI60 Melanoma cell line MALME-3M, read-out: GI50

| SMILES | TGI (mean) (NCI 60 cell line panel; [2]) | GI50 (NCI 60 cell line panel; [3]) | CC50 (NCI 60 cell line panel; [4]) | IC50 [1, 5] | GI50 (OVCAR-4; OVCAR-4) | GI50 (BT-549; BT-549) | GI50 (SNB-19; SNB-19) | GI50 (HCT-116; HCT-116) | GI50 (PC-3; PC-3) | GI50 (NCI 60 cell line panel; 60 cell, read-out: GI50 (mean)) | CC50 (NCI 60 cell line panel; 60 cell, read-out: LC50) | CC50 (NCI 60 cell line panel; 60 cell, read-out: LC50 (mean)) | GI50 (NCI 60 cell line panel; 60 cell, read-out: mean GI50) | GI50 (OVCAR-3; OVCAR-3) | GI50 (SK-MEL-5; SK-MEL-5) | GI50 (HCT-15; HCT-15) | IC50 [1, 6] | GI50 (MDA-MB-231/ATCC; Homo sapiens, MDA-MB-231) | GI50 (IGROV1) | GI50 (MALME-3M; Malme-3M) | also measured |
| --- | --- | --- | --- | --- | --- | --- | --- | --- | --- | --- | --- | --- | --- | --- | --- | --- | --- | --- | --- | --- | --- |
| COc1ccc(/C=C\c2cc(OC)c(OC)c(OC)c2)cc1O [CA-4, Combretastatin A-4, reference compound] | 10300 nM | 99.3 nM | 85500 nM | 5.2 nM |  |  |  |  |  |  |  |  |  |  |  |  |  |  |  |  | GI50 (NCI 60 cell line panel; over the full 60 cell line panel, read-out: mean GI50): 99 nM |
| C=CC1C(=O)N(c2cc(OC)c(OC)c(OC)c2)C1c1ccc(OC)cc1 (stereo not drawn) [Compound 7h, 4-(4-Methoxyphenyl)-1-(3,4,5-trimethoxyphenyl)-3-vinylazetidin-2-one] | 23440 nM |  |  |  | 77.6 nM | 32.5 nM | 54.2 nM | 30.7 nM | 37.4 nM | 52.5 nM | > 100000 nM | 75900 nM | 52 nM | 25.1 nM | 19.4 nM | 37.1 nM | 20 ± 2.5 nM | 31.7 nM | 40.4 nM | 73 nM | GI50 (SN12C; SN12C): 55.2 nM; IC50 (MDA-MB-231/ATCC; Homo sapiens, MDA-MB-231, read-out: Antiproliferative Activity IC50, MDA-MB-231): 31 nM; IC50 (MDA-MB-231/ATCC; read-out: Antiproliferative Activity IC50, MDA-MB-231): 31.7 nM |
| C=CC1C(=O)N(c2cc(OC)c(OC)c(OC)c2)C1c1ccc(OC)c(O)c1 (stereo not drawn) [Compound 7s, 4-[3-Hydroxy-4-methoxyphenyl]-1-(3,4,5-trimethoxyphenyl)-3-vinylazetidin-2-one] | 5890 nM |  |  | 1.4 nM |  |  |  |  |  | 22.9 nM | > 100000 nM | 74100 nM | 23 nM |  |  |  |  |  |  |  | GI50 (OVCAR-4; [7]): 13.1 nM; GI50 (BT-549; [8]): < 10 nM; GI50 (SN12C; [9]): < 10 nM; GI50 (SNB-19; [10]): 40.5 nM; GI50 (TK-10; [11]): 10.2 nM; GI50 (HCT-116; [12]): < 10 nM; GI50 (PC-3; [13]): < 10 nM; GI50 (NCI 60 cell line panel; 60 cell): < 10 nM; GI50 (OVCAR-3; [14]): < 10 nM; GI50 (SK-MEL-5; [15]): < 10 nM; GI50 (HCT-15; [16]): 18 nM; IC50 [1, 17]: 8 ± 0.71 nM; IC50 (MDA-MB-231/ATCC; Homo sapiens, MDA-MB-231, read-out: Antiproliferative Activity IC50): 10 nM; GI50 (MDA-MB-231/ATCC; [18]): < 10 nM; GI50 (IGROV1; [19]): < 10 nM; GI50 (MALME-3M; [20]): 28.3 nM |
| C=CC1C(=O)N(c2cc(OC)c(OC)c(OC)c2)C1c1ccc(OC)c(N)c1 (stereo not drawn) [Compound 7t, 4-(3-Amino-4-methoxyphenyl)-1-(3,4,5-trimethoxyphenyl)-3-vinylazetidin-2-one] | 50120 nM |  |  |  | < 10 nM | 25.9 nM | 49 nM | 27.6 nM | 41.5 nM | 47.9 nM |  | 89100 nM | 48 nM | 18.1 nM | 14.6 nM | 28.7 nM | 17 ± 1.8 nM | 41.5 nM | 49.6 nM | > 100000 nM | GI50 (K-562): 37.2 nM; GI50 (TK-10; TK-10): 26800 nM; GI50 (OVCAR-8; OVCAR-8): 14.8 nM |
| C=CC1C(=O)N(c2cc(OC)c(OC)c(OC)c2)C1c1ccc(OC)c(OP(=O)(O)O)c1 (stereo not drawn) [Compound 17b, 2-Methoxy-5-(1-(3,4,5-trimethoxyphenyl)-4-oxo-3-vinylazetidin-2-yl)phenyl dihydrogen phosphate] | 36300 nM | 72.4 nM | 87100 nM |  |  |  |  |  |  |  |  |  |  |  |  |  |  |  |  |  | GI50 (K-562; NCI60 Leukemia cell line K-562, read-out: GI50): 41.5 nM; GI50 (OVCAR-4; [7]): 160 nM; GI50 (BT-549; [8]): 115 nM; GI50 (SN12C; [9]): 146 nM; GI50 (SNB-19; [10]): 459 nM; GI50 (TK-10; [11]): 11400 nM; GI50 (HCT-116; [12]): 43.9 nM; GI50 (PC-3; [13]): 53.6 nM; GI50 (OVCAR-3; [14]): 49.7 nM; GI50 (SK-MEL-5; [15]): 31.2 nM; GI50 (HCT-15; [16]): 47.4 nM; IC50 [1, 17]: 27 ± 2 nM; GI50 (OVCAR-8; NCI60 Ovarian cancer cell line OVCAR-8, read-out: GI50): 44.2 nM; IC50 (MDA-MB-231/ATCC; Homo sapiens, MDA-MB-231, MDA-MB-231, read-out: Antiproliferative Activity IC50): 49 nM; GI50 (MDA-MB-231/ATCC; [18]): 48.6 nM; IC50 (MDA-MB-231/ATCC; MDA-MB-231, read-out: Antiproliferative Activity IC50): 48.6 nM; GI50 (IGROV1; [19]): 66.9 nM; GI50 (MALME-3M; [20]): 54500 nM |

Reference: paper PMC6630832, “3-Vinylazetidin-2-Ones: Synthesis, Antiproliferative and Tubulin Destabilizing Activity in MCF-7 and MDA-MB-231 Breast Cancer Cells” (Pharmaceuticals, 2019)
